# Reference: article PMC5641551, “Chemical Proteomics for Target Discovery of Head-to-Tail Cyclized Mini-Proteins” (Frontiers in Chemistry, 2017)
# No end group written: not given here.
# How the values were obtained:
# [1] = test system: 14-3-3 proteins / 25 kDa protein band in murine splenocyte lysates; assay: photo-affinity pull down, splenocyte lysate, with competitors; type: binding, mouse; details: competitors at 100-fold molar excess versus bait [T20K,W23Bpa]kB1, in-gel digestion and proteomics
# Experimental: (§1) Splenocytes or Jurkat cells were lysed with 25 mM Tris-HCl pH 7.4, 40 mM KCl, 2.5 mM MgSO4 2.5 mM CaCl2, 2% (v/v) glycerol, 1 mM EDTA under repeated freeze-thaw cycles and 10 min sonification. All experiments were performed in buffer with 1x complete protease inhibitor cocktail (Hoffman-La Roche, Basel, Switzerland). Cell membranes and debris were pelleted for 30 min at 16,000 × g and the supernatant corresponds to the “soluble cell lysate.” Protein concentration was determined using a bicinchoninic acid assay kit (Thermo Scientific) and DTT (1 mM) was added to keep redox potential constant during binding experiments. Photo-affinity pull down samples were submitted to denaturing sodium dodecyl sulfate polyacrylamide gel electrophoresis (PAGE). For immunoblotting according to earlier published protocols (Gruber et al., [2007]; Bergmayr et al., [2013]) proteins were semi-dry transferred onto a nitrocellulose membrane 0.45 μM (Amersham Protran, GE Healthcare, Austria) using a Fast Semi-dry blotter (Bio-Rad) at 0.25 mA per gel for 1 h. Primary rabbit anti-GFP antibody (1:5,000) was from Invitrogen (A6455), rabbit anti-GST antibody (1:2,500) from Abcam (ab9085), and mouse anti-human calcineurin subunit A antibody (1:2,000) clone BE2.1 from eBioscience. Secondary ECL anti-mouse (NA931V) or ECL anti-rabbit (NA934VS) IgG antibodies (1:10,000) were conjugated with horse radish peroxidase (GE Healthcare). Chemo-luminescence signals were detected on an imaging system FluorChem HD2 (Alpha Innotech, CA, United States). For silver staining protein gels were treated immediately after electrophoresis with fixing solution EtOH/ddH2O/acetic acid 50/40/10% (v/v/v) for 20 min. Gels had to be washed acid free, first with 50% (v/v) EtOH for 10 min and with ddH2O for 2 h. Gels were exposed to sensitization buffer 0.025% Na2S2O3 in ddH2O for 3 min, followed by 2 min wash with ddH2O. Gels were silver loaded using a 0.15% AgNO3 solution for 45 min in the dark. The protein bands were stained in development buffer formaldehyde/Na2CO3 0.04/2% (v/w) under rigorous shaking. The reaction was quenched with 5% (v/v) acetic acid solution and the gels were stored until further processing in the stopping buffer at 4°C. Pixel quantification was carried out using ImageJ v1.47 (National Institute for Health).
# (§2) Biotin-LC-LC-labeled (ThermoFisher) peptides (1–5 nmoles) with or without (non-biotinylated) competitor (20–100-fold molar excess) were incubated with Jurkat cell or murine splenocyte cell lysates (150–500 μg proteins) for 2 h at 4°C in the presence of protease inhibitors. UV-activation of photo-crosslinking moiety benzophenone was induced by irradiation at 360 nm on ice for 15 min (Stratalinker, Stratagene, CA, United States). […]
# EAE disease in mice = details: cited from earlier work
# Source text: 14-3-3s are ubiquitous adaptor proteins that are involved in cell signaling, cell cycle progression and apoptosis as well as protein-protein interaction and cellular transport (Aghazadeh and Papadopoulos, [2016]). The 14-3-3 family is often described as a chimera, since knockout of single isoforms may remain without or with minor phenotypic changes due to functional rescue through the recruitment of other family members. […] Many tumor suppressors or oncogenes are regulated by 14-3- ... || Meanwhile, plant-derived cyclotides are recognized for their pharmaceutical potential. […] Additionally, cyclotides are considered as promising templates for the design of stabilized, orally active peptide epitopes (Jagadish and Camarero, [2010]; Craik et al., [2012]). The cystine-knot motif is capable of tolerance to the incorporation of several amino acid long sequences without impacting its endogenous structure and stability. Using this ...
# GST-tagged 14-3-3β = assay: co-precipitation of GST-tagged 14-3-3β with cyclotide probe and competitors; type: binding
# Experimental: as §1
# as §2, with “([…])” for “(non-biotinylated) competitor (20–100-fold molar excess)”
# [2] = test system: 14-3-3 proteins / 25 kDa protein in Jurkat cell lysates; assay: photo-affinity pull down, Jurkat cell lysate, with competition; type: binding, human; details: competitor at 20-, 60- and 100-fold molar excess of biotinylated probe [T20K,W23Bpa]kB1, silver-stained gel
# Experimental: Splenocytes or Jurkat cells were lysed with 25 mM Tris-HCl pH 7.4, 40 mM KCl, 2.5 mM MgSO4 2.5 mM CaCl2, 2% (v/v) glycerol, 1 mM EDTA under repeated freeze-thaw cycles and 10 min sonification. All experiments were performed in buffer with 1x complete protease inhibitor cocktail (Hoffman-La Roche, Basel, Switzerland). Cell membranes and debris were pelleted for 30 min at 16,000 × g and the supernatant corresponds to the “soluble cell lysate.” Protein concentration was determined using a bicinchoninic acid assay kit (Thermo Scientific) and DTT (1 mM) was added to keep redox potential constant during binding experiments. Photo-affinity pull down samples were submitted to denaturing sodium dodecyl sulfate polyacrylamide gel electrophoresis (PAGE). For immunoblotting according to earlier published protocols (Gruber et al., [2007]; Bergmayr et al., [2013]) proteins were semi-dry transferred onto a nitrocellulose membrane 0.45 μM (Amersham Protran, GE Healthcare, Austria) using a Fast Semi-dry blotter (Bio-Rad) at 0.25 mA per gel for 1 h. […] Chemo-luminescence signals were detected on an imaging system FluorChem HD2 (Alpha Innotech, CA, United States). […] Pixel quantification was carried out using ImageJ v1.47 (National Institute for Health). […]
sequence,measurement,setting,value
"CGETCVGGTCNTPGCKCSWPVCTRNGLPV (also: bicyclic or more (positions not given here)) [[T20K]kB1, synthetic cyclotide drug candidate, Thr20 to Lys mutant of kalata B1]",competition effect for 14-3-3 proteins (order),[1],"competition effect in the order [T20K]kB1 < [T20K,W23Bpa]kB1 < R18"
same,progression of typical symptoms in mouse model of multiple sclerosis,"EAE disease in mice; oral administration, ref Thell et al., 2016",halted the progression of typical symptoms
same,symptoms of the EAE disease in mice,"EAE disease in mice; reported, reference not given",reduce the symptoms of the EAE disease in mice
same,binding to 14-3-3 family proteins,GST-tagged 14-3-3β; conclusion in words from competition co-precipitation,can bind to 14-3-3 family proteins
same,"binding of probe [T20K,W23Bpa]kB1 to 14-3-3β in presence of competitor","GST-tagged 14-3-3β; immunoblot and far Western blot, 2 h at 4°C, competitors 150–500-fold molar excess",significantly altered
same,effect of competitor on 25 kDa protein band intensity,[2],revealed an effect on the band intensity of a 25 kDa protein
